Reference: US6777422B2, “Substituted tetrahydroisoquinolines as C5a receptor modulators” (Neurogen Corp., priority 2002, dated 2004)
pKi: −log10 of the molar value.

Each compound was assayed against T1, human C5a receptor (Homo sapiens, UniProt P21730) (assay: C5a receptor mediated calcium mobilization assay (Example 20)). Conditions: differentiated U937 cells, read-out: Ca2+ (Ki in the standard assay of C5a receptor mediated calcium mobilization).
T1 construct: endogenous in cells; host or cells: U937 cells differentiated with 1 mM dibutyryl cAMP
T1 sequence (P21730 1-350): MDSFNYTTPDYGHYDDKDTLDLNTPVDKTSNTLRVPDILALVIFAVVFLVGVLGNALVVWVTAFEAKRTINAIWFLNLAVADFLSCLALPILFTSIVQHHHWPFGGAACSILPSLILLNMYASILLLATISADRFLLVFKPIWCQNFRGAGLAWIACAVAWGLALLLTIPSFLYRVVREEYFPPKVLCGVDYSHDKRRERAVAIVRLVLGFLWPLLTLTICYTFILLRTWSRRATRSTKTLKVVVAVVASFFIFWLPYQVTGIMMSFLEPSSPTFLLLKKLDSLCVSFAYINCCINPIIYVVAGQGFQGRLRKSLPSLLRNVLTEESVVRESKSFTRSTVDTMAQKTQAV
Format: cell-based
Procedure: Calcium Mobilization Assays
U937 cells are grown in differentiation media (1 mM dibutyryl cAMP in RPMI 1640 medium containing 10% fetal bovine serum) for 48 hrs at 37° C. then reseeded onto 96-well plates suitable for use in a FLIPR™ Plate Reader (Molecular Devices Corp., Sunnyvale Calif.). Cells are grown an additional 24 hours (to 70-90% confluence) before the assay. The cells are then washed once with Krebs Ringer solution. FLUO-3 calcium sensitive dye (Molecular Probes, Inc. Eugene, Oreg.) is added to 10 μg/mL and incubated with the cells at room temperature for 1 to 2 hours. The 96 well plates are then washed to remove excess dye. Fluorescence responses, measured by excitation at 480 nm and emission at 530 nm, are monitored upon the addition of human C5a to the cells to a final concentration of 0.01-30.0 nM, using the FLIPR™ device (Molecular Devices).
C. Assays for the Identification of Receptor Modulatory Agents: Antagonists and Agonists
The calcium mobilization assay described above may be readily adapted for identifying test compounds that have agonist or antagonist activity at the human C5a receptor.
For example, in order to identify antagonist compounds, differentiated U937 cells are washed and incubated with Fluo-3 dye as described above. One hour prior to measuring the fluorescence signal, a subset of the cells is incubated with 1 μM of at least one compound to be tested. The fluorescence response upon the subsequent addition of 0.3 nM (final concentration) human recombinant C5a is monitored using the FLIPR™ plate reader. Antagonist compounds elicit at least a 2-fold decrease in the fluorescence response relative to that measured in the presence of human C5a alone. Preferred antagonist compounds elicit at least a 5-fold, preferably at least a 10-fold, and more preferably at least a 20-fold decrease in the fluorescence response relative to that measured in the presence of human C5a alone.

SMILES | pKi
Cc1ccccc1[C@@H]1c2ccccc2CCN1[C@@H](C)C(=O)N(Cc1ccccc1F)C1Cc2ccccc2C1 (relative stereo) [Compound 19, N-(indan-2-yl)-N-(2-fluorobenzyl)-2-[1-(2-methylphenyl)-3,4-dihydroisoquinolin-2(1H)-yl]propanamide] | > 6.00
O=C(CN1CCc2ccccc2[C@H]1c1ccccc1Br)N(Cc1ccccc1F)C1Cc2ccccc2C1 (stereo in doubt) [Compound 22, 2-[1-(2-bromophenyl)-3,4-dihydroisoquinolin-2(1H)-yl]-N-(indan-2-yl)-N-(2-fluorobenzyl)acetamide] | > 6.00
Cc1ccccc1C1c2ccccc2CCN1CC(=O)N(Cc1ccccc1F)C1Cc2ccccc2C1 (stereo in doubt) [Compound 28, N-(indan-2-yl)-N-(2-fluorobenzyl)-2-[(1S)-1-(2-methylphenyl)-3,4-dihydroisoquinolin-2(1H)-yl]acetamide] | > 6.00
Cc1ccccc1C1c2ccccc2[C@@H](C)CN1CC(=O)N(Cc1ccccc1F)C1Cc2ccccc2C1 (stereo in doubt) [Compound 30, N-(2-Fluoro-benzyl)-N-indan-2-yl-2-(4-methyl-1-o-tolyl-3,4-dihydro-1H-isoquinolin-2-yl)-acetamide] | > 6.00
Cc1ccccc1[C@@H]1c2ccccc2CCN1[C@@H](C)C(=O)N(Cc1ccccc1F)C1Cc2ccccc2C1 (stereo in doubt) [Compound 34, (2S)-N-(indan-2-yl)-N-(2-fluorobenzyl)-2-[(1R)-1-(2-methylphenyl)-3,4-dihydroisoquinolin-2(1H)-yl]propanamide] | > 6.00
O=C(CN1CCc2ccccc2[C@H]1c1cccc(Cl)c1Cl)N(Cc1ccccc1F)C1Cc2ccccc2C1 (stereo in doubt) [Compound 36, 2-[1-(2,3-dichlorophenyl)-3,4-dihydroisoquinolin-2(1H)-yl]-N-(indan-2-yl)-N-(2-fluorobenzyl)acetamide] | > 6.00
Cc1ccccc1[C@H]1c2ccccc2CCN1[C@@H](C)C(=O)N(Cc1ccccc1F)C1Cc2ccccc2C1 (stereo in doubt) [Compound 39, (2S)-N-(indan-2-yl)-N-(2-fluorobenzyl)-2-[(1S)-1-(2-methylphenyl)-3,4-dihydroisoquinolin-2(1H)-yl]propanamide] | > 6.00
Cc1ccccc1[C@@H]1c2ccccc2[C@@H](C)CN1CC(=O)N(Cc1ccccc1F)C1Cc2ccccc2C1 (stereo in doubt) [Compound 46, N-(indan-2-yl)-N-(2-fluorobenzyl)-2-[(1R,4R)-4-methyl-1-(2-methylphenyl)-3,4-dihydroisoquinolin-2(1H)-yl]acetamide] | > 6.00
Cc1ccc(C)c([C@@H]2c3ccccc3CCN2CC(=O)N(Cc2ccccc2F)C2Cc3ccccc3C2)c1 (stereo in doubt) [Compound 49, N-(indan-2-yl)-2-[1-(2,5-dimethylphenyl)-3,4-dihydroisoquinolin-2(1H)-yl]-N-(2-fluorobenzyl)acetamide] | > 6.00
Cc1ccc(Cl)cc1[C@@H]1c2ccccc2CCN1CC(=O)N(Cc1ccccc1F)C1Cc2ccccc2C1 (stereo in doubt) [Compound 51, 2-[1-(5-chloro-2-methylphenyl)-3,4-dihydroisoquinolin-2(1H)-yl]-N-(indan-2-yl)-N-(2-fluorobenzyl)acetamide] | > 6.00
Cc1ccc(Cl)c([C@@H]2c3ccccc3CCN2CC(=O)N(Cc2ccccc2F)C2Cc3ccccc3C2)c1 (stereo in doubt) [Compound 52, 2-[1-(2-chloro-5-methylphenyl)-3,4-dihydroisoquinolin-2(1H)-yl]-N-(indan-2-yl)-N-(2-fluorobenzyl)acetamide] | > 6.00
Cc1ccccc1[C@@H]1c2c(ccc(C)c2C)CCN1CC(=O)N(Cc1ccccc1F)C1Cc2ccccc2C1 (stereo in doubt) [Compound 73, N-(indan-2-yl)-2-[7,8-dimethyl-1-(2-methylphenyl)-3,4-dihydroisoquinolin-2(1H)-yl]-N-(2-fluorobenzyl)acetamide] | > 6.00
Cc1ccccc1[C@@H]1c2c(C)cccc2CCN1CC(=O)N(Cc1ccccc1F)C1Cc2ccccc2C1 (stereo in doubt) [Compound 78, N-(indan-2-yl)-N-(2-fluorobenzyl)-2-[8-methyl-1-(2-methylphenyl)-3,4-dihydroisoquinolin-2(1H)-yl]acetamide] | > 6.00
COc1cccc2c1C(c1ccccc1C)N(CC(=O)N(Cc1ccccc1F)C1Cc3ccccc3C1)CC2 (centres unmarked) [Compound 14, N-(indan-2-yl)-N-(2-fluorobenzyl)-2-[8-methoxy-1-(2-methylphenyl)-3,4-dihydroisoquinolin-2(1H)-yl]acetamide] | > 6.00
CCC1(c2ccccc2C)c2ccccc2CCN1CC(=O)N(Cc1ccccc1F)C1Cc2ccccc2C1 (centres unmarked) [Compound 16, N-(indan-2-yl)-2-[1-ethyl-1-(2-methylphenyl)-3,4-dihydroisoquinolin-2(1H)-yl]-N-(2-fluorobenzyl)acetamide] | > 6.00
COc1ccccc1C1c2ccccc2CCN1CC(=O)N(Cc1ccccc1F)C1Cc2ccccc2C1 (centres unmarked) [Compound 24, N-(indan-2-yl)-N-(2-fluorobenzyl)-2-[1-(2-methoxyphenyl)-3,4-dihydroisoquinolin-2(1H)-yl]acetamide] | > 6.00
Cc1cccc(C2c3ccccc3CCN2CC(=O)N(Cc2ccccc2F)C2Cc3ccccc3C2)c1C (centres unmarked) [Compound 25, N-(indan-2-yl)-2-[1-(2,3-dimethylphenyl)-3,4-dihydroisoquinolin-2(1H)-yl]-N-(2-fluorobenzyl)acetamide] | > 6.00
Cc1ccccc1[C@@H]1c2ccccc2CCN1CC(=O)N(Cc1ccccc1F)C1Cc2ccccc2C1 [Compound 26, N-(indan-2-yl)-N-(2-fluorobenzyl)-2-[(1R)-1-(2-methylphenyl)-3,4-dihydroisoquinolin-2(1H)-yl]acetamide] | > 6.00
Cc1ccccc1C1c2ccccc2[C@@H](C)CN1CC(=O)N(Cc1ccccc1F)C1Cc2ccccc2C1 (stereo partly drawn) [Compound 27, N-(indan-2-yl)-N-(2-fluorobenzyl)-2-[(4R)-4-methyl-1-(2-methylphenyl)-3,4-dihydroisoquinolin-2(1H)-yl]acetamide] | > 6.00
CCc1ccccc1C1c2ccccc2CCN1CC(=O)N(Cc1ccccc1F)C1Cc2ccccc2C1 (centres unmarked) [Compound 29, N-(indan-2-yl)-2-[1-(2-ethylphenyl)-3,4-dihydroisoquinolin-2(1H)-yl]-N-(2-fluorobenzyl)acetamide] | > 6.00
Cc1ccccc1C1c2ccccc2CCN1Cc1cnc(-c2ccccc2)n1C1Cc2ccccc2C1 (centres unmarked) [Compound 33, 2-{[1-(indan-2-yl)-2-phenyl-1H-imidazol-5-yl]methyl}-1-(2-methylphenyl)-1,2,3,4-tetrahydroisoquinoline] | > 6.00

Same assay, conditions: differentiated U937 cells, unit inferred, read-out: Ca2+ (numeric value, C5a receptor mediated calcium mobilization)

SMILES | pKi
Cc1ccccc1[C@@H]1C2=C(CCCC2)CCN1CC(=O)N(Cc1ccccc1F)C1Cc2ccccc2C1 (stereo in doubt) [Compound 131, N-(2-Fluoro-benzyl)-N-indan-2-yl-2-(1-o-tolyl-3,4,5,6,7,8-hexahydro-1H-isoquinolin-2-yl)-acetamide] | 7.88
Cc1ccccc1[C@@H]1CCCCN1[C@@H](C)C(=O)N(Cc1ccccc1F)C1Cc2ccccc2C1 (stereo in doubt) [Compound 132, N-(2-Fluoro-benzyl)-N-indan-2-yl-2-(2-o-tolyl-piperidin-1-yl)-propionamide] | 6.94
